Data set [1] is described as follows: Metabolic stability in human liver microsomes. Format: in vitro ADME. The settings on record: pH 7.4, 37° C.; for half-life: read-out: T ½. On the procedure: Microsomal incubations were performed in 0.05 M Tris-KCl buffer (pH 7.4) in the presence of test compound dissolved in DMSO at a series of concentrations, rat liver microsomes (RLMs) (S9 or human liver microsomes (HLMs)), rat liver cytoplasms (RLCs) (human liver cytoplasms (HLCs, 0.5 mg/mL)), 1.3 mM β-nicotinamide adenine dinucleotide phosphate sodium salt (NADP), 3.3 mM D-glucose-6-phosphate disodium salt (G-6-P), 0.4 units/mL glucose-6-phosphate dehydrogenase (G-6-PDH, type XII), and 3.3 mM MgCl2. The volume of the organic solvents was not more than 1% by volume with respect to the reaction system. After a preincubation of the mixture in a rotating mixer at 37° C. and 850 rpm for 3 min, hepatic microsomes were added to initiate incubation reactions, which were conducted at 37° C. for 30 min, 60 min, or 90 min, respectively. After the incubations were complete, the reactions were terminated by addition of an equal volume of ice cold acetonitrile, followed by addition of 20 μL of a 1 mg/mL solution of geniposide (internal standard) in methanol and then by centrifugation at 10,000 rpm for 10 min to precipitate protein. The […] was blown dry with nitrogen at 40° C. and then dissolved in 100 μL of methanol, which was used as mobile phase. 10 μL of the solution was sampled and analyzed by HPLC.
(In general: Liver microsomes are a subcellular fraction often used to study metabolism.)

The target of another data set is T1, THRα (Homo sapiens, UniProt P10827).
T1 construct: GST
T1 sequence (P10827 1-410 isoform P10827-2): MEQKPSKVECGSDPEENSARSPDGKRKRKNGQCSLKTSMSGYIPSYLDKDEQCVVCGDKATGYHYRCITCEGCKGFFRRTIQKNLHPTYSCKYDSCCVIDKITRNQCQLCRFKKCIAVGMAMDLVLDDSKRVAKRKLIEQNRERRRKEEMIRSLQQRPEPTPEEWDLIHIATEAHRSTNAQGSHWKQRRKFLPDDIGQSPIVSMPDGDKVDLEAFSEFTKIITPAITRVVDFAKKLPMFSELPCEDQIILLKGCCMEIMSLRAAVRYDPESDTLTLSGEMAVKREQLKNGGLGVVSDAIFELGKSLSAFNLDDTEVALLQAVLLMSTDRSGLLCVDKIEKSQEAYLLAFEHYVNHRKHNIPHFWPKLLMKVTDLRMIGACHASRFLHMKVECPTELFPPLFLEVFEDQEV
T1 sequence (P19793 225-462 partner limits assumed): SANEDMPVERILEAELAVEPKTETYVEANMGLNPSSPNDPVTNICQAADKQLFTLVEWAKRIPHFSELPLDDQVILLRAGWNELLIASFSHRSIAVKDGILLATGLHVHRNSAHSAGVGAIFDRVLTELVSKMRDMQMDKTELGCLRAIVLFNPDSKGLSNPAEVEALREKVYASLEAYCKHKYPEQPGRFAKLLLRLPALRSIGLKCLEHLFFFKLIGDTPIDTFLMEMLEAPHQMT
T1 sequence (Q15596 679-703 partner limits assumed): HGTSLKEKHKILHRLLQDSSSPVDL
The data set is described as follows: THRα agonist activity, fluorescence ratio 665 nm/615 nm with EE-RxRα and biotin-GRIP. Format: biochemical. The settings on record: incubated overnight at 4° C. The protocol:
(§1) Test compound was dissolved and serially diluted in dimethyl sulfoxide (DMSO) with a final compound concentration of 60 mM. […] Buffer 1 was employed again to prepare EE-RxRα at the same concentrations as those of THRα and THRβ, respectively. Buffer 1+5% DMSO was employed to prepare biotin-GRIP (THRα: […], THRβ: 100 nM). Buffer 2 (50 mM Tris, pH 7.4, 100 mM NaCl, and 0.2 mg/mL BSA) was employed to prepare a mixed solution of 2×Eu-anti-GST and 2×streptavidin-d2. 5 μL of the THRα (THRβ) solution+5 μL of EE-RxRα+2.5 μL of the DMSO solution of test compound+2.5 μL of biotin-GRIP+5 μL of the mixed solution of 2×Eu-anti-GST and 2×streptavidin-d2 was employed as the reaction system, and incubated overnight at 4° C.

The next data set relates to L929 mouse fibroblasts. The data set is described as follows: Cytotoxicity in normal cell line L929 (CCK-8 proliferation assay). The settings on record: 48 h treatment, CCK-8, absorbance 450 nm, read-out: IC50 for proliferation of L929 cell lines. It is filed as cell-based. On the procedure: Concentration of L929 mouse fibroblasts was adjusted to 4×10^5 cells/mL. The cells were seeded in a 96 well plate with […] per well. Wells not supplied with the cells (blank group) were provided. The cells were cultivated on the plate and were allowed to adhere overnight. Then, cell culture supernatants were collected, and 200 μL of test compound at various concentrations were added to the corresponding cell culture supernatants. Control and compound-treated cell culture supernatants were included in each experiment with triplicate wells for each experimental group, and were cultivated for a further 48 h. Then, the resulting cell culture supernatants were again collected, and fresh medium supplemented with 10% CCK-8 solution was added thereto. Incubation for an additional 3 h was carried out. Thereafter, the absorbance of the medium was measured at 450 nm wavelength, and the inhibitory rate of cell proliferation by test compound was calculated according to the equation below: R (%)=1−(Aexperiment−Ablank)/(Acontrol−Ablank)

The target in the next data set is T2, THRβ (Homo sapiens, UniProt P10828).
T2 construct: GST
T2 sequence (P10828 1-461): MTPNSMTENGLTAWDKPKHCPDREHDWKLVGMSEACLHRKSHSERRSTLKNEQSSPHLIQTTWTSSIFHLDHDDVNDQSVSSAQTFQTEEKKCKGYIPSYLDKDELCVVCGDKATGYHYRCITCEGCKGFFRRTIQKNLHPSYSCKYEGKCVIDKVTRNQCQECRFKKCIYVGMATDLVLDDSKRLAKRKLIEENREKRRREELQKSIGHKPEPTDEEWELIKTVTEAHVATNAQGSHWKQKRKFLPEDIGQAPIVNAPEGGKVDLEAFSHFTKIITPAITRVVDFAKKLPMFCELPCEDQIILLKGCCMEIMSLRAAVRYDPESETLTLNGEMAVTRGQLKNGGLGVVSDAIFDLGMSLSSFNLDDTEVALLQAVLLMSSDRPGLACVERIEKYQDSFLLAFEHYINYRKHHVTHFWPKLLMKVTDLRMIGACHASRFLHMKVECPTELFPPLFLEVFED
T2 sequence (P19793 225-462 partner limits assumed): T1 sequence (P19793 225-462 partner limits assumed)
T2 sequence (Q15596 679-703 partner limits assumed): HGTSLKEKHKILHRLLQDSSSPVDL
The data set is described as follows: THRβ agonist activity, fluorescence ratio 665 nm/615 nm with EE-RxRα and biotin-GRIP. It is filed as biochemical. The settings on record: incubated overnight at 4° C. On the procedure:
as §1

Here are results for 20 compounds from patent US11964962B2, “Substituted pyridazinone compound and use thereof” (SHANDONG FIRST MEDICAL UNIVERSITY & SHANDONG ACADEMY OF …, priority 2020, dated 2024).

Consider `CC(C)c1cc(Oc2c(Cl)cc(-n3nc(C#N)c(=O)[nH]c3=O)cc2Cl)n[nH]c1=O` [MGL-3196, Resmetirom, reference compound], for which, in data set [1], the microsomal CLint (usually the capacity of the preparation to metabolise the compound, expressed as a volume cleared per time) stood at 2.21 µL/min/mg and the half-life was less than 6.67 h.
In the case of `N#Cc1nn(-c2cc(Cl)c(Oc3cc(CC4CCCC4)c(=O)[nH]n3)c(Cl)c2)c(=O)[nH]c1=O` [Compound 6], the EC50 (as a rule, the concentration at which the effect is half-maximal) on THRα is 2.75 µM. In data set [1], the microsomal CLint was determined as 0.18 µL/min/mg and the half-life amounted to 16.3 h. In the data set on L929 mouse fibroblasts, the IC50 is greater than 50 µM. The EC50 on THRβ was determined as 0.0949 µM.
In the same order, the values of `Cc1c(Oc2ccc(-n3nc(C#N)c(=O)[nH]c3=O)cc2Cl)n[nH]c(=O)c1C` [Compound 24] are 3.29 µM, 0.452 µL/min/mg, 14.5 h, greater than 50 µM and 0.0101 µM.
For `COc1cc(-n2nc(C#N)c(=O)[nH]c2=O)ccc1Oc1cc(CC2CCCC2)c(=O)[nH]n1` [Compound 12], the concentration for a half-maximal effect (EC50) on THRα is 8.68 µM; at THRβ, 0.723 µM. Further, in the data set with L929 mouse fibroblasts, the IC50 was greater than 50 µM.
For the compound `CC(C)(C)c1cc(Oc2c(Cl)cc(-c3nn[nH]n3)cc2Cl)n[nH]c1=O` [Compound 50], the EC50 stood at 2.59 µM on THRα and 0.465 µM on THRβ. Further, in the data set on L929 mouse fibroblasts, the IC50 is greater than 50 µM.
Turning to `CC(C)c1cc(Oc2ccc(-n3nc(C#N)c(=O)[nH]c3=O)cc2Cl)n[nH]c1=O` [Compound 26], the EC50 at THRα is 2.07 µM; at THRβ, 0.055 µM. Further, the IC50 in the data set with L929 mouse fibroblasts is greater than 50 µM.
In the same order, the values of `N#Cc1nn(-c2ccc(Oc3n[nH]c(=O)cc3C3CC3)c(Cl)c2)c(=O)[nH]c1=O` [Compound 37] are 0.001 µM, 3.22 µM and greater than 50 µM.
On to `CC(C)c1cc(Oc2c(Br)cc(-n3nc(C#N)c(=O)[nH]c3=O)cc2Br)n[nH]c1=O` [Compound 28], for which the EC50 was 0.0381 µM at THRα and 0.102 µM at THRβ. In addition, the IC50 in the data set with L929 mouse fibroblasts is greater than 50 µM.
For `CC(C)(C)Cc1cc(Oc2c(Cl)cc(-n3nc(C#N)c(=O)[nH]c3=O)cc2Cl)n[nH]c1=O` [Compound 18], in that order: 2.11 µM, 0.0311 µM and greater than 50 µM.
For the compound `CC(C)c1cc(Oc2c(Cl)cc(-c3c[nH]c(=O)c(O)c3)cc2Cl)n[nH]c1=O` [Compound 47, 6-(2,6-dichloro-4-(5-hydroxy-6-oxo-1,6-dihydropyridin-3-yl)phenoxy)-4-isopropylpyridazin-3(2H)-one], the EC50 on THRα turned out to be 17.6 µM; on THRβ it was 1.65 µM. In addition, the IC50 in the data set with L929 mouse fibroblasts is greater than 50 µM.
For `CC(C)c1cc(Oc2ccc(-n3cc(C#N)c(=O)[nH]c3=O)c(Cl)c2)n[nH]c1=O` [Compound 41], in that order: 0.001 µM, greater than 60 µM and greater than 50 µM.
For `N#Cc1nn(-c2ccc(Oc3cc(C4CCCC4)c(=O)[nH]n3)c(F)c2)c(=O)[nH]c1=O` [Compound 32], the concentration giving a half-maximal response (EC50) on THRα worked out at 18.5 µM; on THRβ it was 0.279 µM. For the same compound, the IC50 with L929 mouse fibroblasts is greater than 50 µM.
Take `CC(C)(C)c1cc(Oc2c(Cl)cc(-c3c[nH]c(=O)c(O)c3)cc2Cl)n[nH]c1=O` [Compound 48]: the EC50 on THRα stood at 3.66 µM; on THRβ, 0.745 µM. In addition, in the data set on L929 mouse fibroblasts, the IC50 was greater than 50 µM.
In the same order, the values of `N#Cc1nn(-c2ccc(Oc3n[nH]c(=O)cc3C3CCCC3)c(Cl)c2)c(=O)[nH]c1=O` [Compound 39] are 3.22 µM, 0.583 µM and greater than 50 µM.
As to `N#Cc1nn(-c2ccc(Oc3cc(CC4CCCC4)c(=O)[nH]n3)c(F)c2)c(=O)[nH]c1=O` [Compound 7], the EC50 on THRα turned out to be 10 µM; on THRβ, 0.013 µM. For the same compound, in data set [1], the microsomal CLint worked out at 0.12 µL/min/mg. The half-life in data set [1] came to 18.3 h. In addition, the IC50 in the data set on L929 mouse fibroblasts was greater than 50 µM.
For `CC(C)c1cc(Oc2ccc(-n3nc(C#N)c(=O)[nH]c3=O)cc2F)n[nH]c1=O` [Compound 25], the figures for the EC50 at THRα and at THRβ were 0.014 µM and 2.7 µM, respectively. For the same compound, the IC50 in the data set with L929 mouse fibroblasts is greater than 50 µM.
In the same order, the values of `N#Cc1nn(-c2cc(Cl)c(Oc3cc(C4CCCC4)c(=O)[nH]n3)cc2Cl)c(=O)[nH]c1=O` [Compound 34] are 0.014 µM, 3.85 µM and greater than 50 µM.
For `COc1cc(-n2nc(C#N)c(=O)[nH]c2=O)ccc1Oc1cc(C(C)C)c(=O)[nH]n1` [Compound 31], in that order: 5.11 µM, 0.0625 µM and greater than 50 µM.
For `CC(C)(C)Cc1cc(Oc2cc(Cl)c(-n3cc(C#N)c(=O)[nH]c3=O)cc2Cl)n[nH]c1=O` [Compound 44], in that order: 2.32 µM, 0.042 µM and greater than 50 µM.
For the compound `CC(C)c1cc(=O)[nH]nc1Oc1cc(Cl)c(-n2nc(C#N)c(=O)[nH]c2=O)cc1Cl` [Compound 35], the EC50 at THRα and on THRβ was greater than 60 µM in each case. The IC50 in the data set on L929 mouse fibroblasts was greater than 50 µM.
